Results on 32 compounds are retold here after ChEMBL document CHEMBL3621096, “Discovery of Potent and Selective Inhibitors for ADAMTS-4 through DNA-Encoded Library Technology (ELT)” (ACS Med Chem Lett, 2015).

The target in the assay is T1, A disintegrin and metalloproteinase with thrombospondin motifs 4 (Homo sapiens, UniProt O75173).
T1 sequence (O75173 whole entry): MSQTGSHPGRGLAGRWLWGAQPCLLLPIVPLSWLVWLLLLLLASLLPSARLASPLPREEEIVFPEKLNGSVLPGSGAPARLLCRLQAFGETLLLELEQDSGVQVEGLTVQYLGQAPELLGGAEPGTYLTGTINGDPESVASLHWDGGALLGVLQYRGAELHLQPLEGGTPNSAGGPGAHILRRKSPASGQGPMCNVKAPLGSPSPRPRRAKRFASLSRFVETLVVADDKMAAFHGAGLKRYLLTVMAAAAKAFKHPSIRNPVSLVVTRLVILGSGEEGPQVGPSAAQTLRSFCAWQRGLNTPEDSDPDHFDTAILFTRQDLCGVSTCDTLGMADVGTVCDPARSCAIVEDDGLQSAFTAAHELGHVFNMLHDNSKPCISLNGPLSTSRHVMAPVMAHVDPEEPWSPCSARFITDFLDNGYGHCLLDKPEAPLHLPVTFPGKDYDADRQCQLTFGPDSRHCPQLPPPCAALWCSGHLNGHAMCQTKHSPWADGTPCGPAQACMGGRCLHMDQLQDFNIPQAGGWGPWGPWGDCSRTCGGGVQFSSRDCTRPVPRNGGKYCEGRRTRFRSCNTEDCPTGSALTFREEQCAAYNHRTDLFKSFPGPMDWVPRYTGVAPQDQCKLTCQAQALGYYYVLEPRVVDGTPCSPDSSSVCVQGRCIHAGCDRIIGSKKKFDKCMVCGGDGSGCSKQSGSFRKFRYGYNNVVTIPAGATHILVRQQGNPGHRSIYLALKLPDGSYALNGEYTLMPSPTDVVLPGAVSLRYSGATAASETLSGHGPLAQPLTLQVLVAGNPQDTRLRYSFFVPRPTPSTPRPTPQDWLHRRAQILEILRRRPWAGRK
The assay can be described thus: Inhibition of recombinant human ADAMTS4 (213 to 575 amino acid residues) using WAAG-3R as substrate preincubated for 15 mins followed by substrate addition measured every 30 secs for 1 hr.
Take `COc1cc2c(cc1OC)CN(c1nc(NCCN3CCN(C)CC3)nc(NCc3ccccc3)n1)CC2`: the IC50 came out at 3000 nM. On to `CCN(C)C(=O)c1ccc(CNc2ncnc(N3CCc4cc(OC)c(OC)cc4C3)n2)cc1`, for which the IC50 worked out at 1820 nM. Take `CCN(C(=O)c1ccc(CNc2ncnc(N3CCc4cc(F)ccc4C3)n2)cc1)c1cccc(C)c1`: the IC50 was 370 nM. Under `CCN(C(=O)c1ccc(CNc2ncnc(NCc3ccc(OC)c(OC)c3)n2)cc1)c1cccc(C)c1` stands 158 nM; under `CCN(C(=O)c1ccc(CNc2nc(NC)nc(N3CCc4cc(OC)c(OC)cc4C3)n2)cc1)c1cccc(C)c1`, 30 nM; under `CCN(C(=O)c1ccc(CNc2nc(NC3CCCCC3)nc(N3CCc4cc(OC)c(OC)cc4C3)n2)cc1)c1cccc(C)c1`, 284 nM. On to `COc1cc2c(cc1OC)CN(c1nc(NCCN3CCN(C)CC3)nc(NCc3ccc(C(=O)Nc4cccc(C)c4)cc3)n1)CC2`, for which the IC50 amounted to 518 nM. Consider `CCN(C(=O)c1ccc(CNc2nc(NCCN3CCN(C)CC3)nc(N3CCCc4ccccc43)n2)cc1)c1cccc(C)c1`, for which the IC50 amounted to 6500 nM. In the case of `CCN(C)C(=O)c1ccc(CNc2ncnc(N3CCc4ccccc4C3)n2)cc1`, the IC50 worked out at 1700 nM. Then `CCN(C(=O)c1ccc(CNc2nc(NCCN(C)C)nc(N3CCc4ccccc4C3)n2)cc1)c1cccc(C)c1`, with 8 nM. Then `CCN(C)C(=O)c1ccc(CNc2nc(NCCN(C)C)nc(N3CCc4ccccc4C3)n2)cc1`, with 43 nM; and `CCN(C(=O)c1ccc(CNc2nc(NCC(=O)O)nc(N3CCc4cc(OC)c(OC)cc4C3)n2)cc1)c1cccc(C)c1`, with 88 nM; and `CCN(C(=O)c1ccc(CNc2nc(NCCc3ccco3)nc(N3CCc4cc(OC)c(OC)cc4C3)n2)cc1)c1cccc(C)c1`, with 163 nM. Take `CCN(C(=O)c1ccc(CNc2ncnc(N3CCc4ccc(F)cc4C3)n2)cc1)c1cccc(C)c1`: the IC50 was 333 nM. With `CCN(C(=O)c1ccc(CNc2ncnc(N3CCc4cc(OC)c(OC)cc4C3)n2)cc1)c1cccc(C)c1`, the IC50 worked out at 23 nM.

On to `CCN(C(=O)c1ccc(CNc2nc(O)nc(N3CCc4cc(OC)c(OC)cc4C3)n2)cc1)c1cccc(C)c1`, for which the IC50 was 22 nM. In the case of `CCN(C(=O)c1ccc(CNc2nc(NCCN3CCN(C)CC3)nc(N3CCc4ccccc4C3)n2)cc1)c1cccc(C)c1`, the IC50 was determined as 6 nM. Under `CCN(C)C(=O)c1ccc(CNc2nc(NCCN(C)C)nc(N3CCc4cc(OC)c(OC)cc4C3)n2)cc1` stands 81 nM.

`CCN(C(=O)c1ccc(CNc2nc(NCCN(C)C)nc(N3CCc4cc(OC)c(OC)cc4C3)n2)cc1)c1cccc(C)c1`: the IC50 worked out at 14 nM. Take `CCN(C(=O)c1ccc(CNc2nc(NCc3ccccc3)nc(N3CCc4cc(OC)c(OC)cc4C3)n2)cc1)c1cccc(C)c1`: the IC50 came to 60 nM. Regarding `CCN(C(=O)c1ccc(CNc2ncnc(N3CCc4ccccc4C3)n2)cc1)c1cccc(C)c1`, the IC50 came to 63 nM.

As for `CCN(C(=O)c1ccc(CNc2ncnc(N3Cc4ccccc4C3)n2)cc1)c1cccc(C)c1`, the IC50 was 5600 nM. Turning to `CCN(C(=O)c1ccc(CNc2nc(Cl)nc(N3CCc4cc(OC)c(OC)cc4C3)n2)cc1)c1cccc(C)c1`, the IC50 is 102 nM. `CCN(C)C(=O)c1ccc(CNc2nc(NCCN3CCN(C)CC3)nc(N3CCc4cc(OC)c(OC)cc4C3)n2)cc1`: the 50% inhibitory concentration (IC50) was determined as 64 nM.

`CCN(C(=O)c1ccc(CNc2nc(NC(C)C)nc(N3CCc4cc(OC)c(OC)cc4C3)n2)cc1)c1cccc(C)c1`: the IC50 came to 60 nM. Turning to `CCN(C(=O)c1ccc(CNc2ncnc(N3CCCCC3)n2)cc1)c1cccc(C)c1`, the IC50 was > 10000 nM. Turning to `CCN(C)C(=O)c1ccc(CNc2nc(N3CCN(C)CC3)nc(N3CCc4cc(OC)c(OC)cc4C3)n2)cc1`, the IC50 worked out at 8500 nM.

Turning to `COc1cc2c(cc1OC)CN(c1nc(NCCN3CCN(C)CC3)nc(NCc3ccc(C(=O)O)cc3)n1)CC2`, the IC50 was > 10000 nM. In the case of `CCN(C)C(=O)c1ccc(CNc2nc(N3CCN(C)CC3)nc(N3CCc4ccccc4C3)n2)cc1`, the IC50 came to 5500 nM. `CNC(=O)c1ccc(CNc2nc(NCCN3CCN(C)CC3)nc(N3CCc4cc(OC)c(OC)cc4C3)n2)cc1`: the IC50 was determined as 3000 nM. Then `CCN(C(=O)c1ccc(CNc2nc(Nc3ccccc3)nc(N3CCc4cc(OC)c(OC)cc4C3)n2)cc1)c1cccc(C)c1`, with 181 nM. Regarding `CCN(C(=O)c1ccc(CNc2nc(NCc3ccccc3)nc(N3CCc4ccccc4C3)n2)cc1)c1cccc(C)c1`, the IC50 was 61 nM.
